Values quoted from earlier work, collected in patent US20070213265A1, “Kunitz-type sequences and polypeptides” (Novo Nordisk A/S, priority 2001, published 2007).

Key:
plasma kallikrein = plasma kallikrein (Homo sapiens, UniProt P03952)
granulocyte elastase = granulocyte elastase (Homo sapiens, UniProt P08246)
[1] = high doses; cardiac surgery, including cardiopulmonary bypass operations

Chain of granulocyte elastase (P08246 30-267): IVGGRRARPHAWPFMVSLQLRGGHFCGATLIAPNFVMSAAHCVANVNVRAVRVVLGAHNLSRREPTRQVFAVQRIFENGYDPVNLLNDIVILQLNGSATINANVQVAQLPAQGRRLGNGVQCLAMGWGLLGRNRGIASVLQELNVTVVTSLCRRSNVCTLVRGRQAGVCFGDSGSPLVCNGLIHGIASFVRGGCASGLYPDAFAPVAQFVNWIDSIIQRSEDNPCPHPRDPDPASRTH
Chain of plasma kallikrein (P03952 20-638, species assumed): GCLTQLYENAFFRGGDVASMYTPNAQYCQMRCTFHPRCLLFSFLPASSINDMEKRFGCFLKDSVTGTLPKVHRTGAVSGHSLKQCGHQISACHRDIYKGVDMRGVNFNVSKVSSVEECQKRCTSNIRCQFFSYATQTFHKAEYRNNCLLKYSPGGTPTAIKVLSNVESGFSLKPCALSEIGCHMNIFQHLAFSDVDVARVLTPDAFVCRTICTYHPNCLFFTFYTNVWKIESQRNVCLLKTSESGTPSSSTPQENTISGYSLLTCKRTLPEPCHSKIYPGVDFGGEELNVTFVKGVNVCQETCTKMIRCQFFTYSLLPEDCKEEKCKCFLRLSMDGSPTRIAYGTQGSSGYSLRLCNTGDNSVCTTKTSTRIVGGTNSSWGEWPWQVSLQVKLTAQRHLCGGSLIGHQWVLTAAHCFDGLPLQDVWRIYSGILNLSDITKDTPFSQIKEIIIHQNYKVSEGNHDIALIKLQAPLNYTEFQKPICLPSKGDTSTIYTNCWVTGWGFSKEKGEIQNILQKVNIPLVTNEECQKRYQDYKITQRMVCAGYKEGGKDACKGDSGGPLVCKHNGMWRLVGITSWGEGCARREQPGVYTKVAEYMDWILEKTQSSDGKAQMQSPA

aprotinin (3-58, Arg15, Ala17, Ser42)
plasma kallikrein inhibitory effect (plasma kallikrein): excellent

aprotinin(1-58, Val15)
inhibitory effect on collagenase (collagenase): inhibitory effect
selectivity for granulocyte elastase (granulocyte elastase): relatively high selectivity

aprotinin
blood loss [1]: significantly reduces blood loss

Aprotinin (1-58, Ala15)
effect on elastase (elastase): weak effect
